From patent US12649722B2, “Herbicidal cinnoline derivatives” (SYNGENTA CROP PROTECTION AG, priority 2020, dated 2026)

What was measured:
Format in all cases: in vivo
[1] = test system: Echinochloa crus-galli (ECHCG); assay: Pre-emergence Test, ECHCG; conditions: 1000 g/ha, evaluated after 13 days
[2] = test system: ABUTH; assay: Post-emergence Test, ABUTH; conditions: sprayed after 8 days cultivation, 1000 g/ha, evaluated after 13 days
Experimental: [The procedure below names another target; the source lists this target under the same test.] (§1) Seeds of a variety of test species are sown in standard soil in pots (Amaranthus retoflexus (AMARE), Solarium nigrum (SOLNI), Setaria faberi (SETFA), Lolium perenne (LOLPE), Echinochloa crus-galli (ECHCG), Ipornoea hederacea (IPOHE)). After 8 days cultivation under controlled conditions in a glasshouse (at 24° C./16° C., day/night; 14 hours light; 65% humidity), the plants are sprayed with an aqueous spray solution derived from the formulation of the technical active ingredient in acetone/water (50:50) solution containing 0.5% Tween 20 (polyoxyethylene sorbitan monolaurate, CAS RN 9005-64-5). Compounds are applied at 1000 g/ha unless otherwise stated. The test plants are then grown in a glasshouse under controlled conditions in a glasshouse (at 24° C./16° C., day/night; 14 hours light; 65% humidity) and watered twice daily. After 13 days the test is evaluated for the percentage damage caused to the plant. The biological activities are shown in the following table on a five-point scale (5=81-100%; 4=61-80%; 3=41-60%; 2=21-40%; 1=10-20%; 0=0%; −=not tested).

[3] = test system: Amaranthus retoflexus (AMARE); assay: Post-emergence Test, AMARE; conditions: sprayed after 8 days cultivation, 1000 g/ha, evaluated after 13 days
Experimental: as §1

[4] = test system: ZEAMX; assay: Pre-emergence Test, ZEAMX; conditions: 1000 g/ha, evaluated after 13 days
[5] = test system: Setaria faberi (SETFA); assay: Post-emergence Test, SETFA; conditions: sprayed after 8 days cultivation, 1000 g/ha, evaluated after 13 days
Experimental: as §1

[6] = test system: Ipornoea hederacea (IPOHE); assay: Pre-emergence Test, IPOHE; conditions: 1000 g/ha, evaluated after 13 days
[7] = test system: Amaranthus retoflexus (AMARE); assay: Pre-emergence Test, AMARE; conditions: 1000 g/ha, evaluated after 13 days
[8] = test system: ZEAMX; assay: Post-emergence Test, ZEAMX; conditions: sprayed after 8 days cultivation, 1000 g/ha, evaluated after 13 days
Experimental: [The procedure below names another target; the source lists this target under the same test.] as §1

[9] = test system: Ipornoea hederacea (IPOHE); assay: Post-emergence Test, IPOHE; conditions: sprayed after 8 days cultivation, 1000 g/ha, evaluated after 13 days
Experimental: as §1

[10] = test system: Setaria faberi (SETFA); assay: Pre-emergence Test, SETFA; conditions: 1000 g/ha, evaluated after 13 days
[11] = test system: Echinochloa crus-galli (ECHCG); assay: Post-emergence Test, ECHCG; conditions: sprayed after 8 days cultivation, 1000 g/ha, evaluated after 13 days
Experimental: as §1

[12] = test system: ABUTH; assay: Pre-emergence Test, ABUTH; conditions: 1000 g/ha, evaluated after 13 days

Row | SMILES | percentage damage caused to the plant, ECHCG [1] | percentage damage caused to the plant, ABUTH [2] | percentage damage caused to the plant, AMARE [3] | percentage damage caused to the plant, ZEAMX [4] | percentage damage caused to the plant, SETFA [5] | percentage damage caused to the plant, IPOHE [6] | percentage damage caused to the plant, AMARE [7] | percentage damage caused to the plant, ZEAMX [8] | percentage damage caused to the plant, IPOHE [9] | percentage damage caused to the plant, SETFA [10] | percentage damage caused to the plant, ECHCG [11] | percentage damage caused to the plant, ABUTH [12]
1 | CCOC(=O)c1nn(-c2ccc(OC(F)(F)F)cc2)c2cccc(N3CCCC3)c2c1=O [Compound P28, ethyl 4-oxo-5-pyrrolidin-1-yl-1-[4-(trifluoromethoxy)phenyl] cinnoline-3-carboxylate] | 0 (0=0%) | 0 (0=0%) | 0 (0=0%) | 0 (0=0%) | 0 (0=0%) | 0 (0=0%) | 0 (0=0%) | 0 (0=0%) | 0 (0=0%) | 0 (0=0%) | 0 (0=0%) | 0 (0=0%)
2 | C=C(OCC)c1cccc2c1c(=O)c(C(=O)OCC)nn2-c1ccc(OC(F)(F)F)cc1 [Compound P29, ethyl 5-(1-ethoxyvinyl)-4-oxo-1-[4-(trifluoromethoxy)phenyl] cinnoline-3-carboxylate] | 4 (4=61-80%) | 1 (1=10-20%) | 0 (0=0%) | 1 (1=10-20%) | 3 (3=41-60%) | 1 (1=10-20%) | 1 (1=10-20%) | 2 (2=21-40%) | 0 (0=0%) | 5 (5=81-100%) | 4 (4=61-80%) | 1 (1=10-20%)
3 | CCOC(=O)c1nn(-c2ccc(OC(F)(F)F)cc2)c2cccc(C(C)=O)c2c1=O [Compound P30, ethyl 5-acetyl-4-oxo-1-[4-(trifluoromethoxy)phenyl] cinnoline-3-carboxylate] | 4 (4=61-80%) | 3 (3=41-60%) | 1 (1=10-20%) | 4 (4=61-80%) | 4 (4=61-80%) | 1 (1=10-20%) | 1 (1=10-20%) | 3 (3=41-60%) | 2 (2=21-40%) | 5 (5=81-100%) | 4 (4=61-80%) | 2 (2=21-40%)
4 | CCOC(=O)c1nn(-c2ccc(OC(F)(F)F)cc2)c2cccc(-n3cc(C(F)(F)F)cn3)c2c1=O [Compound P31, ethyl 4-oxo-1-[4-(trifluoromethoxy)phenyl]-5-[4-(trifluoromethyl)pyrazol-1-yl]cinnoline-3-carboxylate] | 0 (0=0%) | 0 (0=0%) | 0 (0=0%) | 0 (0=0%) | 0 (0=0%) | 0 (0=0%) | 0 (0=0%) | 0 (0=0%) | 0 (0=0%) | 0 (0=0%) | 0 (0=0%) | 0 (0=0%)
5 | CCOC(=O)c1nn(-c2ccc(OC(F)(F)F)cc2)c2cccc(-n3cc(Cl)cn3)c2c1=O [Compound P32, ethyl 5-(4-chloropyrazol-1-yl)-4-oxo-1-[4-(trifluoromethoxy)phenyl] cinnoline-3-carboxylate] | 4 (4=61-80%) | 1 (1=10-20%) | 1 (1=10-20%) | 2 (2=21-40%) | 3 (3=41-60%) | 0 (0=0%) | 2 (2=21-40%) | 1 (1=10-20%) | 1 (1=10-20%) | 4 (4=61-80%) | 3 (3=41-60%) | 2 (2=21-40%)
6 | CCOC(=O)c1nn(-c2ccc(OC(F)(F)F)cc2)c2cccc(-n3cc(C(F)(F)F)nn3)c2c1=O [Compound P33, ethyl 4-oxo-1-[4-(trifluoromethoxy)phenyl]-5-[4-(trifluoromethyl)triazol-1-yl]cinnoline-3-carboxylate] | 0 (0=0%) | 0 (0=0%) | 0 (0=0%) | 1 (1=10-20%) | 0 (0=0%) | 0 (0=0%) | 0 (0=0%) | 0 (0=0%) | 0 (0=0%) | 0 (0=0%) | 0 (0=0%) | 0 (0=0%)
7 | CCOC(=O)c1nn(-c2ccc(OC(F)(F)F)cc2)c2cccc(-n3ncc(C(F)(F)F)n3)c2c1=O [Compound P34, ethyl 4-oxo-1-[4-(trifluoromethoxy)phenyl]-5-[4-(trifluoromethyl)triazol-2-yl]cinnoline-3-carboxylate] | 0 (0=0%) | 0 (0=0%) | 0 (0=0%) | 2 (2=21-40%) | 0 (0=0%) | 0 (0=0%) | 0 (0=0%) | 0 (0=0%) | 0 (0=0%) | 0 (0=0%) | 0 (0=0%) | 0 (0=0%)
8 | CCOC(=O)c1nn(-c2ccc(OC(F)(F)F)cc2)c2cccc(CC#N)c2c1=O [Compound P35, ethyl 5-(cyanomethyl)-4-oxo-1-[4-(trifluoromethoxy)phenyl] cinnoline-3-carboxylate] | 5 (5=81-100%) | 0 (0=0%) | 0 (0=0%) | 2 (2=21-40%) | 4 (4=61-80%) | 0 (0=0%) | 1 (1=10-20%) | 3 (3=41-60%) | 0 (0=0%) | 5 (5=81-100%) | 4 (4=61-80%) | 0 (0=0%)
9 | CCOC(=O)c1nn(-c2ccc(OC(F)(F)F)cc2)c2cccc(C(F)F)c2c1=O [Compound P36, ethyl 5-(difluoromethyl)-4-oxo-1-[4-(trifluoromethoxy)phenyl] cinnoline-3-carboxylate] | 0 (0=0%) | 0 (0=0%) | 0 (0=0%) | 0 (0=0%) | 1 (1=10-20%) | 1 (1=10-20%) | 0 (0=0%) | 0 (0=0%) | 0 (0=0%) | 2 (2=21-40%) | 0 (0=0%) | 1 (1=10-20%)
10 | O=C(O)c1nn(-c2ccc(OC(F)(F)F)cc2)c2cccc(C(F)F)c2c1=O [Compound P37, 5-(difluoromethyl)-4-oxo-1-[4-(trifluoromethoxy)phenyl] cinnoline-3-carboxylic acid] | 0 (0=0%) | 0 (0=0%) | 1 (1=10-20%) | 0 (0=0%) | 2 (2=21-40%) | 0 (0=0%) | 0 (0=0%) | 1 (1=10-20%) | 1 (1=10-20%) | 0 (0=0%) | 2 (2=21-40%) | 0 (0=0%)
